The experiment concerns P388 leukemia ip, CD2F1 mice, survival T/C. The experiment in a line: NCI In Vivo Anticancer Drug Screen. Data for tumor model P388 Leukemia (intraperitoneal) in CD2F1 (CDF1) mice. Conditions: endpoint: median survival time, higher = longer survival. In outline: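 Mice carrying the transplanted tumor received test compound or vehicle. Survival was recorded in each group, and the value is the treated-group measurement divided by that of the vehicle-treated control group.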

[1] abbreviates: dose: 100.0 mg/kg/injection, schedule: Q04DX003 (ip), vehicle: saline with Tween-80.
The mark [2] stands for this setting: dose: 100.0 mg/kg/injection, schedule: Q01DX009 (ip), vehicle: saline.
The mark [3] stands for this setting: dose: 200.0 mg/kg/injection, schedule: Q01DX009 (ip), vehicle: saline.
The mark [4] stands for this setting: dose: 50.0 mg/kg/injection, schedule: Q01DX005 (ip), vehicle: saline with Tween-80.
Setting [5] is: dose: 100.0 mg/kg/injection, schedule: Q01DX005 (ip), vehicle: saline with Tween-80.
[6] abbreviates: dose: 200.0 mg/kg/injection, schedule: Q04DX003 (ip), vehicle: saline with Tween-80.
[7] abbreviates: dose: 60.0 mg/kg/injection, schedule: Q01DX005 (ip), vehicle: Klucel (hydroxypropylcellulose) (HPC).
Where [8] appears, read: dose: 120.0 mg/kg/injection, schedule: Q01DX005 (ip), vehicle: Klucel (hydroxypropylcellulose) (HPC).
Setting [9] is: dose: 50.0 mg/kg/injection, schedule: Q04DX003 (ip), vehicle: saline with Tween-80.

SMILES strings stand for the structures. “And” between values parts separate entries of the source, which are not always exact repeats. Equal values may be shown once. Inconclusive results and toxic doses are left out.

On to `CC(=O)c1c(O)c(C)cc2c1CCc1ccc(O)c(C)c1-2`, for which the T/C (dose: 2.0 mg/kg/injection, schedule: Q01DX009 (ip), vehicle: Klucel (hydroxypropylcellulose) (HPC)) was 116 % of control; the T/C (dose: 4.0 mg/kg/injection, schedule: Q01DX009 (ip), vehicle: Klucel (hydroxypropylcellulose) (HPC)) was 100 % of control; the T/C (dose: 8.0 mg/kg/injection, schedule: Q01DX009 (ip), vehicle: Klucel (hydroxypropylcellulose) (HPC)) is 107 % of control; the T/C (dose: 16.0 mg/kg/injection, schedule: Q01DX009 (ip), vehicle: Klucel (hydroxypropylcellulose) (HPC)) was 108 % of control.

In the case of `CCCCN(CCCC)C(=N)c1ccnc2ccccc12`, the T/C runs as follows: (dose: 6.25 mg/kg/injection, schedule: Q01DX005 (ip), vehicle: saline) 95 % of control; (dose: 12.5 mg/kg/injection, schedule: Q01DX005 (ip), vehicle: saline) 97 % of control; (dose: 25.0 mg/kg/injection, schedule: Q01DX005 (ip), vehicle: saline) 97 % of control.

As for `O=C(O)CCSC1=CC(=O)c2ccccc2C1=O`, the T/C (dose: 6.25 mg/kg/injection, schedule: Q04DX003 (ip), vehicle: gum acacia) was 115 % of control and the T/C (dose: 12.5 mg/kg/injection, schedule: Q04DX003 (ip), vehicle: gum acacia) is 110 % of control.

Consider `N=C(N)SCc1c2ccccc2cc2ccccc12`, for which the T/C is 109 % of control (dose: 22.0 mg/kg/injection, schedule: Q01DX009 (ip), vehicle: saline with Tween-80); 109 % of control (dose: 33.0 mg/kg/injection, schedule: Q01DX009 (ip), vehicle: saline with Tween-80); 109 % of control (dose: 50.0 mg/kg/injection, schedule: Q01DX009 (ip), vehicle: saline with Tween-80); 118 % of control (dose: 75.0 mg/kg/injection, schedule: Q01DX009 (ip), vehicle: saline with Tween-80); 118 % of control under setting [1].

With `COC1=C(OC)C(=O)C(N(C)C)=C(CO)C1=O`, the T/C was 105 % of control (dose: 30.0 mg/kg/injection, schedule: Q01DX005 (ip), vehicle: saline); 103 % of control and 108 % of control (dose: 60.0 mg/kg/injection, schedule: Q01DX005 (ip), vehicle: saline); 117 % of control and 120 % of control (dose: 120.0 mg/kg/injection, schedule: Q01DX005 (ip), vehicle: saline).

Take `CC(C)C(=O)OC1(C(C)c2ccccc2)C(=O)NC(=O)NC1=O` (configuration not stated): the T/C is, setting by setting: (dose: 7.5 mg/kg/injection, schedule: Q01DX005 (ip), vehicle: Klucel (hydroxypropylcellulose) (HPC)) 98 % of control; (dose: 15.0 mg/kg/injection, schedule: Q01DX005 (ip), vehicle: Klucel (hydroxypropylcellulose) (HPC)) 102 % of control.

With `Clc1c(Cl)c(Cl)c(SC2C3CC4C(C3)C42)c(Cl)c1Cl` (configuration not stated), the T/C (dose: 50.0 mg/kg/injection, schedule: Q01DX009 (ip), vehicle: saline) is 103 % of control; the T/C under setting [2] is 108 % of control; the T/C under setting [3] is 101 % of control.

As for `CCCCN=Cc1c(OC(C)=O)c(OC(C)=O)c(C(C)C)c2cc(C)c(-c3c(C)cc4c(C(C)C)c(OC(C)=O)c(OC(C)=O)c(C=NCCCC)c4c3OC(C)=O)c(OC(C)=O)c12`, the T/C is 95 % of control (dose: 6.25 mg/kg/injection, schedule: Q01DX005 (ip), vehicle: Klucel (hydroxypropylcellulose) (HPC)); 98 % of control (dose: 12.5 mg/kg/injection, schedule: Q01DX005 (ip), vehicle: Klucel (hydroxypropylcellulose) (HPC)); 97 % of control (dose: 25.0 mg/kg/injection, schedule: Q01DX005 (ip), vehicle: Klucel (hydroxypropylcellulose) (HPC)).

Take `O=C(N/N=C/c1cccc(O)c1O)c1ccccc1`: the T/C reads like this: under setting [4], 104 % of control; under setting [5], 109 % of control; (dose: 200.0 mg/kg/injection, schedule: Q01DX005 (ip), vehicle: saline with Tween-80) 119 % of control.

Turning to `CNC(=O)C(C(=O)NC)c1ccccc1`, the T/C runs as follows: (dose: 100.0 mg/kg/injection, schedule: Q04DX003 (ip), vehicle: Klucel (hydroxypropylcellulose) (HPC)) 95 % of control; (dose: 200.0 mg/kg/injection, schedule: Q04DX003 (ip), vehicle: Klucel (hydroxypropylcellulose) (HPC)) 95 % of control; (dose: 400.0 mg/kg/injection, schedule: Q04DX003 (ip), vehicle: Klucel (hydroxypropylcellulose) (HPC)) 96 % of control.

Turning to `Cn1c(=O)c2[nH]c(-c3c[nH]c4ccccc34)nc2n(C)c1=O`, the T/C is, setting by setting: under setting [1], 89 % of control; under setting [6], 89 % of control; (dose: 400.0 mg/kg/injection, schedule: Q04DX003 (ip), vehicle: saline with Tween-80) 86 % of control.

`O.O=C(O)CN(CCN(CC(=O)O)CC(=O)O)CC(=O)O.[Rh+2]`: the T/C reads like this: (dose: 100.0 mg/kg/injection, schedule: Q01DX009 (ip), vehicle: saline sonified) 90 % of control; (dose: 200.0 mg/kg/injection, schedule: Q01DX009 (ip), vehicle: saline sonified) 90 % of control; (dose: 400.0 mg/kg/injection, schedule: Q01DX009 (ip), vehicle: saline sonified) 95 % of control.

In the case of `CN1CCC(C(c2ccccc2)c2ccccc2)C1` (configuration not stated), the T/C reads like this: (dose: 12.5 mg/kg/injection, schedule: Q01DX009 (ip), vehicle: Klucel (hydroxypropylcellulose) (HPC)) 100 % of control; (dose: 25.0 mg/kg/injection, schedule: Q01DX009 (ip), vehicle: Klucel (hydroxypropylcellulose) (HPC)) 102 % of control; (dose: 50.0 mg/kg/injection, schedule: Q01DX009 (ip), vehicle: Klucel (hydroxypropylcellulose) (HPC)) 105 % of control.

As for `COc1c[nH]c(CO)cc1=O`, the T/C was 101 % of control and 104 % of control under setting [2]; 108 % of control and 114 % of control under setting [3]; 99 % of control and 114 % of control (dose: 400.0 mg/kg/injection, schedule: Q01DX009 (ip), vehicle: saline).

In the case of `CS(=O)(=O)NC(=O)NC(=S)c1ccco1`, the T/C (dose: 100.0 mg/kg/injection, schedule: Q01DX001 (ip), vehicle: saline with Tween-80) is 105 % of control; the T/C (dose: 200.0 mg/kg/injection, schedule: Q01DX001 (ip), vehicle: saline with Tween-80) was 102 % of control; the T/C (dose: 400.0 mg/kg/injection, schedule: Q01DX001 (ip), vehicle: saline with Tween-80) is 97 % of control.

`CCCC1SCC(=O)N1c1nncs1` (configuration not stated): the T/C was 94 % of control (dose: 30.0 mg/kg/injection, schedule: Q01DX005 (ip), vehicle: Klucel (hydroxypropylcellulose) (HPC)); 104 % of control and 111 % of control under setting [7]; 96 % of control (dose: 100.0 mg/kg/injection, schedule: Q01DX001 (ip), vehicle: Klucel (hydroxypropylcellulose) (HPC)); 120 % of control under setting [8]; 103 % of control (dose: 200.0 mg/kg/injection, schedule: Q01DX001 (ip), vehicle: Klucel (hydroxypropylcellulose) (HPC)); 166 % of control (dose: 240.0 mg/kg/injection, schedule: Q01DX005 (ip), vehicle: Klucel (hydroxypropylcellulose) (HPC)).

On to `CCCCCCCCCCCCCCCC(=O)NC1CC(OC2CC(O)(C(C)=O)Cc3c(O)c4c(c(O)c32)C(=O)c2c(OC)cccc2C4=O)OC(C)C1O` (configuration not stated), for which the T/C reads like this: (dose: 0.75 mg/kg/injection, schedule: Q01DX009 (ip), vehicle: other) 111 % of control; (dose: 1.5 mg/kg/injection, schedule: Q01DX009 (ip), vehicle: other) 98 % of control; (dose: 3.0 mg/kg/injection, schedule: Q01DX009 (ip), vehicle: other) 113 % of control.

For `CCCCCCC1(O)OC(=O)C(C)=C1C` (configuration not stated), the T/C reads like this: (dose: 12.5 mg/kg/injection, schedule: Q04DX003 (ip), vehicle: saline with Tween-80) 110 % of control; (dose: 25.0 mg/kg/injection, schedule: Q04DX003 (ip), vehicle: saline with Tween-80) 94 % of control; under setting [9], 94 % of control.

As for `C(=N\SC(c1ccccc1)(c1ccccc1)c1ccccc1)/c1ccccc1`, the T/C runs as follows: under setting [4], 100 % of control; under setting [5], 103 % of control.

As for `COC(=O)c1ccc(C(=O)OC)c2nc3ccccc3nc12`, the T/C under setting [7] was 97 % of control and the T/C under setting [8] is 100 % of control.

Turning to `CCOC(C[Se]c1ccccc1)OCC(F)(F)F` (configuration not stated), the T/C under setting [9] was 90 % of control, the T/C under setting [1] is 102 % of control and the T/C under setting [6] was 111 % of control.

For `COc1cc(OC)c2c[n+](C)c3c4cc(OC)c(OC)cc4ccc3c2c1`, the T/C runs as follows: (dose: 20.0 mg/kg/injection, schedule: Q01DX009 (ip), vehicle: saline with Tween-80) 161 % of control; (dose: 40.0 mg/kg/injection, schedule: Q01DX009 (ip), vehicle: saline with Tween-80) 169 % of control.

Source of the values: PubChem BioAssay AID330 (DTP/NCI, 2004).
